Measured values reported in patent US20130338203A1, “TREATMENT OF ARTERIAL AGEING BY COMBINATION OF RAAS INHIBITOR AND HMG-CoA REDUCTASE INHIBITOR” (FARMICOM PHARMACEUTICAL COMPANY D.O.O., priority 2011, published 2013).
Where two headings read alike, the source gives them in different places.

How the values were obtained:
[1] = in vivo; cited from earlier work
thoracic aorta = experiment: Endothelium-dependent relaxation of thoracic aorta after 6 weeks oral treatment (Example 13); type: in vivo, Wistar rats; details: rats, 6 weeks treatment p.o., NS
Protocol: Sixty Wistar rats of both sexes weighing 230-280 g, 20-24 weeks of age, were obtained from the Faculty of Medicine, Ljubljana. […] A regular 12 h circadian cycle was maintained and between 5 and 7 animals were kept in each cage. The temperature of the experimental environment was 23-25° C. […] After 4-8 weeks of therapy the animals were sacrificed, blood samples were collected and heart and thoracic aorta were isolated. Each group was composed of the same number of male and female rats. […] After mounting, rings were allowed to equilibrate at 20 mN resting tension (found to be optimal in previous experiments) for 60 min. During this period, the tension was periodically adjusted to the desired level and the K-H solution was changed every 10 minutes. After the equilibration period, the rings were contracted three times with 60 mmol/L KCl to achieve stable contractions. […] In control animals the endothelium-dependent relaxation of the thoracic aorta was constant. However, in rats treated with drugs the percentage of endothelium-dependent relaxation was increased in comparison to the control group.

heart = experiment: Coronary flow rate after 6 weeks oral treatment (Example 13); type: in vivo, Wistar rats; details: rats, 6 weeks treatment p.o., 40-minute ischemia, reperfusion, P < 0.001
Protocol: Sixty Wistar rats of both sexes weighing 230-280 g, 20-24 weeks of age, were obtained from the Faculty of Medicine, Ljubljana. […] A regular 12 h circadian cycle was maintained and between 5 and 7 animals were kept in each cage. The temperature of the experimental environment was 23-25° C. […] After 4-8 weeks of therapy the animals were sacrificed, blood samples were collected and heart and thoracic aorta were isolated. Each group was composed of the same number of male and female rats.

isolated rat heart [2] = experiment: Coronary flow rate of isolated heart, ischaemia-reperfusion (Example 12)
[3] = tested on: isolated rat aortic rings; experiment: Endothelium-dependent relaxation of isolated aortic rings after incubation with drugs (Example 12)
arterial wall = details: Ex 8 valsartan group, cited from earlier work
common carotid artery = details: cited from earlier work
[4] = tested on: high sensitivity C-reactive protein (hsCRP); details: Ex 9 valsartan group, 1 month treatment; calculated on data from co-pending patent application; cited from earlier work
brachial artery = details: cited from earlier work; for FMD, improvement (increase): Ex 8 valsartan group, 30 days vs before
carotid artery = details: cited from earlier work
isolated rat heart [5] = experiment: LDH release rate, myocardial ischaemic-reperfusion injury of isolated heart (Example 12); details: losartan 1 μM; P < 0.01
[6] = Ex 8, 1 month treatment period with Valsartan only
[7] = Ex 8 valsartan group, 20 mg daily, 30 days vs before
[8] = Ex 8 valsartan group, 20 mg daily, 30 days
[9] = Ex 8 valsartan group, 7 months of rest period

CC(C)n1c(/C=C/C(O)CC(O)CC(=O)O)c(-c2ccc(F)cc2)c2ccccc21 (stereo not drawn) [fluvastatin]
half-life time (t1/2) in the blood plasma [1]: about 2.5 hours

CC(C)c1c(C(=O)Nc2ccccc2)c(-c2ccccc2)c(-c2ccc(F)cc2)n1CC[C@@H](O)C[C@@H](O)CC(=O)O [atorvastatin]
Increase of endothelium dependent relaxation compared to controls (thoracic aorta; daily dose 5 mg/kg): 6.9%
Increase in coronary flow compared to controls (heart; daily dose 5 mg/kg): 86.9%
Increase in coronary flow compared to controls (isolated rat heart [2]; atorvastatin 0.1 μM, P < 0.05): 52.9%
Endothelium dependent relaxation compared to controls ([3]; atorvastatin 1 μM, P < 0.001): 21.1%

CCCCC(=O)N(Cc1ccc(-c2ccccc2-c2nnn[nH]2)cc1)[C@H](C(=O)O)C(C)C [valsartan]
Arterial age according to age normogram, improvement (arterial wall; 20 mg daily, 30 days vs before): −7.0 years
Arterial age according to age normogram, after treatment (arterial wall; 20 mg daily, 30 days): 38.0 years
Arterial age according to age-related normogram (arterial wall; 7 months of rest period): 43.5 years
Arterial age, difference to before treatment (in brackets) (arterial wall; 7 months of rest period): −1.5 years
Arterial age according to age normogram, before treatment (arterial wall; baseline): 45.0 years
PWV decreased by (common carotid artery; [6]): 7.2%
PWV, improvement (common carotid artery; [7]): −7.2%
PWV, after treatment (common carotid artery; [8]): 5.41 m/s
PWV, residual improvement in % of effect achieved after 1 month of treatment (common carotid artery; [9]): 9.9%
PWV, before treatment (common carotid artery; Ex 8 valsartan group, baseline): 5.80 m/s
half-life time (t1/2) in the blood plasma [1]: about 6.0 hours
Change in hs-CRP value after treatment [4]: +2.45%
FMD, residual improvement in % of effect achieved after 1 month of treatment (brachial artery; Ex 8 valsartan group (20 mg daily, 30 days), 7 months of rest period): 30.4%
FMD, improvement (increase) (brachial artery; 20 mg daily): +156.0%
FMD, improvement (increase) (brachial artery; 20 mg daily, listed as Valsartan): 156.0%
FMD, after treatment (brachial artery; Ex 8 valsartan group: healthy men 43.0 y (n=20), 20 mg daily, 30 days, data from co-pending patent application): 5.40%
FMD, before treatment (brachial artery; Ex 8 valsartan group: healthy men 43.0 y (n=20), baseline, data from co-pending patent application): 2.11%
β-stiffness of the carotid artery decreased by (carotid artery; [6]): 13.7%
β-stiffness, improvement (carotid artery; [7]): −13.7%
β-stiffness, after treatment (carotid artery; [8]): 6.40 U
β-stiffness, residual improvement in % of effect achieved after 1 month of treatment (carotid artery; [9]): 9.2%
β-stiffness, before treatment (carotid artery; Ex 8 valsartan group, baseline): 7.28 U

CCCCc1nc(Cl)c(CO)n1Cc1ccc(-c2ccccc2-c2nn[nH]n2)cc1 [losartan]
Increase of endothelium dependent relaxation compared to controls (thoracic aorta; daily dose 2 mg/kg): 7.3%
Increase in coronary flow compared to controls (heart; daily dose 2 mg/kg): 89.6%
half-life time (t1/2) in the blood plasma [1]: 1.5 to 2 h
Increase in coronary flow compared to controls (isolated rat heart [2]; losartan 1 μM, P < 0.001): 67.3%
Endothelium dependent relaxation compared to controls ([3]; losartan 10 μM, P < 0.01): 17.0%
Decrease of the LDH release rates compared to controls (isolated rat heart [5]): 58.6%
